Experimental findings from US20190375708A1 (VenatoRx Pharmaceuticals, Inc., priority 2018, published 2019) are described below.

For data set [1], the system named is HBV replication in HepAD38 cells. Put plainly: Anti-HBV replication assay in HepAD38 cells (QPCR of extracellular HBV DNA). In kind it is cell-based, HBV (genotype D, serotype ayw). The note with it: Hepatitis B virus, 168 h, 7 days incubation, extracellular HBV DNA by QPCR, read-out: Anti-HBV EC50. In short, it runs like this:
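HepAD38 cells (HepG2 carrying a tet-repressible HBV genotype D genome) were seeded in tetracycline-free medium and treated next day with compound […] for 7 days. Supernatant HBV DNA was measured by QPCR against a standard curve; EC50 came from 4-parameter fits of inhibition versus DMSO control.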

Data set [2] can be described thus: In vitro cytotoxicity assay (MTT cell viability) in HepG2 cells. In kind it is cell-based, human. The note with it: human. In short, it runs like this: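 Parental HepG2 cells in EMEM + 10% FBS were exposed to compounds (8 half-log dilutions, 30 μM to 1.0 nM) for 7 days at 37 °C, 5% CO2. MTT was then added for 3-4 h, formazan dissolved in DMSO and absorbance read at 492 nm; CC50 came from 4-parameter fits against vehicle controls.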

SMILES strings stand for the structures.

In general, EC50 refers to the concentration that produces a half-maximal response. Broadly, the CC50 is the concentration that lowers cell viability or growth by half. The low end stands for greater toxicity to the cells, the high end for lower toxicity to the cells. As to `O=C(NC1(CO)CCC1)C(=O)c1c(Cl)c(C(=O)Nc2ccc(F)c(F)c2)c2n1CCC2` [Example 558, 6-chloro-N-(3,4-difluorophenyl)-5-(2-((1-(hydroxymethyl)cyclobutyl)amino)-2-oxoacetyl)-2,3-dihydro-1H-pyrrolizine-7-carboxamide], in data set [1], the EC50 is under 50 nM. Also, in data set [2], the CC50 at 7 days is over 30 µM.

For `CC(C)(CO)CNC(=O)C(=O)c1c(Cl)c(C(=O)Nc2ccc(F)c(F)c2)c2n1CCC2` [Example 559, 6-chloro-N-(3,4-difluorophenyl)-5-(2-((3-hydroxy-2,2-dimethylpropyl)amino)-2-oxoacetyl)-2,3-dihydro-1H-pyrrolizine-7-carboxamide], in data set [1], the EC50 was 50 to 499 nM. Moreover, the CC50 at 7 days in data set [2] is over 30 µM.

As to `CC(C)(O)CNC(=O)C(=O)c1c(Cl)c(C(=O)Nc2ccc(F)c(F)c2)c2n1CCC2` [Example 560, 6-chloro-N-(3,4-difluorophenyl)-5-(2-((2-hydroxy-2-methylpropyl)amino)-2-oxoacetyl)-2,3-dihydro-1H-pyrrolizine-7-carboxamide], in data set [1], the EC50 is under 50 nM. The CC50 at 7 days in data set [2] is over 30 µM.

As to `O=C(NC1(CO)CC1)C(=O)c1c(Cl)c(C(=O)Nc2ccc(F)c(F)c2)c2n1CCC2` [Example 561, 6-chloro-N-(3,4-difluorohphenyl)-5-(2-((1-(hydroxymethyl)cyclopropyl)amino)-2-oxoacetyl)-2,3-dihydro-1H-pyrrolizine-7-carboxamide], the concentration for a half-maximal effect (EC50) in data set [1] is under 50 nM. The compound also gave a CC50 at 7 days in data set [2] of over 30 µM.

For the compound `Nc1ncc(CNC(=O)C(=O)c2c(Cl)c(C(=O)Nc3ccc(F)c(Cl)c3)c3n2CCC3)s1` [Example 562, 5-(2-(((2-aminothiazol-5-yl)methyl)amino)-2-oxoacetyl)-6-chloro-N-(3-chloro-4-fluorophenyl)-2,3-dihydro-1H-pyrrolizine-7-carboxamide], the EC50 in data set [1] is under 50 nM. This compound gave a CC50 at 7 days in data set [2] of 5 to 30 µM.

With `O=C(N[C@H]1COC[C@@H]1O)C(=O)c1c(Cl)c(C(=O)Nc2ccc(F)c(Cl)c2)c2n1CCC2` [Example 563, 6-chloro-N-(3-chloro-4-fluorophenyl)-5-(2-(((3S,4R)-4-hydroxytetrahydrofuran-3-yl)amino)-2-oxoacetyl)-2,3-dihydro-1H-pyrrolizine-7-carboxamide], in data set [1], the EC50 was under 50 nM. For the same compound, in data set [2], the CC50 at 7 days is 5 to 30 µM.

For the compound `O=C(N[C@H]1CCC[C@H]1O)C(=O)c1c(Cl)c(C(=O)Nc2ccc(F)c(Cl)c2)c2n1CCC2` [Example 564, 6-chloro-N-(3-chloro-4-fluorophenyl)-5--(2-(((1S,2R)-2-hydroxycyclopentyl)amino)-2-oxoacetyl)-2,3-dihydro-1H-pyrrolizine-7-carboxamide], in data set [1], the EC50 was under 50 nM. Also, the CC50 at 7 days in data set [2] lay within 5 to 30 µM.

For `O=C(NC1(CO)CCC1)C(=O)c1c(Cl)c(C(=O)Nc2ccc(F)c(Cl)c2)c2n1CCC2` [Example 565, 6-chloro-N-(3-chloro-4-fluorophenyl)-5-(2-((1-(hydroxymethyl)cyclobutyl)amino)-2-oxoacetyl)-2,3-dihydro-1H-pyrrolizine-7-carboxamide], in data set [1], the EC50 is under 50 nM. Further, in data set [2], the CC50 at 7 days was in the range of 5 to 30 µM.

As for `O=C(NC1(CO)CC1)C(=O)c1c(Cl)c(C(=O)Nc2ccc(F)c(Cl)c2)c2n1CCC2` [Example 566, 6-chloro-N-(3-chloro-4-fluorophenyl)-5-(2-((1-(hydroxymethyl)cyclopropyl)amino)-2-oxoacetyl)-2,3-dihydro-1H-pyrrolizine-7-carboxamide], the half-maximal effective concentration (EC50) in data set [1] was under 50 nM. The CC50 at 7 days in data set [2] lay in the range of 5 to 30 µM.

As to `Cc1noc([C@@H](C)NC(=O)C(=O)c2c(Cl)c(C(=O)Nc3ccc(F)c(F)c3)c3n2CCC3)n1` [Example 567, (R)-6-chloro-N-(3,4-difluorophenyl)-5-(2-((1-(3-methyl-1,2,4-oxadiazol-5-yl)ethyl)amino)-2-oxoacetyl)-2,3-dihydro-1H-pyrrolizine-7-carboxamide], the EC50 in data set [1] is under 50 nM. In addition, the CC50 at 7 days in data set [2] was over 30 µM.
